Measured values from article PMC7592892, “Anemarsaponin BII inhibits the activity of CYP3A4, 2D6, and 2E1 with human liver microsomes” (Pharmaceutical Biology, 2020).
pIC50, pKi: −log10 of the molar value.

Legend:
[1] = biological target: T1, CYP2E1 (Homo sapiens, UniProt P05181); assay: CYP2E1 inhibition in pooled human liver microsomes (chlorzoxazone 6-hydroxylation); type: in vitro ADME; details: for pIC50: 0-100 μM anemarsaponin BII
T1 construct: marker reactions with specific substrates in human liver microsomes (HLMs); from tissue; host or cells: pooled human liver microsomes
Method: (§1) The activity of CYP450s was evaluated by the marker reactions with specific substrates in human liver microsomes (HLMs). The reaction conditions are summarized in Table 1 according to previous studies. The concentration of anemarsaponin BII was 100 μM with the following concentration of specific inhibitors: 10 μM furafylline for CYP1A2, 10 μM tranylcypromine for CYP2A6, 1 μM ketoconazole for CYP3A4, 5 μM montelukast for CYP2C8, 10 μM sulfaphenazole for CYP2C9, 50 μM tranylcypromine for CYP2C19, 10 μM quinidine for CYP2D6, 50 μM clomethiazole for CYP2E1. 200 μL incubation system included 100 mM potassium phosphate buffer (pH 7.4), NADPH generating system (1 mM NADP^+, 10 mM glucose-6-phosphate, 1 U/mL of glucose-6-phosphate dehydrogenase, and 4 mM MgCl2), the appropriate concentration of HLMs, a corresponding probe substrate and anemarsaponin BII (or positive inhibitor for different probe reactions). The HADPH-generating system was added before the incubation to preincubate for 3 min at 37 °C. The reaction was terminated with 100 μL acetonitrile (10% trichloroacetic acid for CYP2A6). Then, the mixture was centrifuged at 12,000 rpm for 10 min, and an aliquot (50 μL) of supernatant was transferred for HPLC analysis with the help of the Agilent 1260 series instrument with DAD and FLD detector according to previous studies. The HPLC conditions for analysis of corresponding metabolites of CYP isoforms are summarized in Table 2 based on previous studies (Lang et al. [2017]; Zhang et al. [2017]).
Incubations were performed in triplicate, and results were represented with the mean value. The final microsomal protein concentration and incubation times for the different probe reactions are summarized in Table 1 based on previous studies (Lang et al. [2017]; Wang et al. [2019]).
The effect of anemarsaponin BII on the activity of CYPs was evaluated in pooled human liver microsomes according to previous studies (Dong et al. [2018]; Wang et al. [2019]). The residual activity of eight CYP isoforms was first detected with 100 μM anemarsaponin BII in HLMs. Next, CYPs of which the activity was inhibited by anemarsaponin BII was incubated with 0, 2.5, 5, 10, 25, 50 and 100 μM anemarsaponin BII to explore the values of half inhibition concentration (IC50). Additionally, 0–50 μM anemarsaponin BII was incubated with various concentration of probe substrates (20–100 μM testosterone for CYP3A4, 10–50 μM dextromethorphan for CYP2D6, and 25–250 μM chlorzoxazone for CYP2E1) to obtain the values of KI.
(§2) The enzyme kinetic parameters for the probe reaction were estimated from the best fit line, using least-squares linear regression of the inverse substrate concentration versus the inverse velocity (Lineweaver–Burk plots), and the mean values were used to calculate Vmax and Km. Inhibition data from the experiments that were conducted using multiple compound concentrations were represented by Dixon plots, and inhibition constant (KI) values were calculated using non-linear regression according to the following equation: Competitive inhibition:v=(VmaxS)/(Km(1+I/KI)+S), Non-competitive inhibition:v=(VmaxS)/[Km+S(1+I/KIKi)] where I is the concentration of the compound, KI is the inhibition constant, S is the concentration of the substrate, and Km is the substrate concentration at half the maximum velocity (Vmax) of the reaction. The mechanism of the inhibition was inspected using the Lineweaver–Burk plots and the enzyme inhibition models. […]

[2] = rat, in vivo; cited from earlier work
[3] = biological target: T2, CYP3A4 (Homo sapiens, UniProt P08684); assay: Time-dependent inhibition of CYP3A4 in HLMs; type: in vitro ADME
T2 construct: marker reactions with specific substrates in human liver microsomes (HLMs); from tissue; host or cells: pooled human liver microsomes
Method: (§3) The effect of incubation time on the inhibition of anemarsaponin BII was evaluated with 20 μM anemarsaponin BII. HLMs were preincubated with anemarsaponin BII and the NADPH-generating system for 30 min at 37 °C. Then, an aliquot (20 μL) was transferred to another incubation tube (final volume 200 μL) containing an NADPH-generating system and probe substrates, of which final concentrations were approximate to Km. After incubating for 0, 5, 10, 15 and 30 min, the reaction was terminated with 100 μL acetonitrile internal standard mix and placed on ice. The metabolites were analyzed by HPLC. To obtain the values of KI and Kinact, another incubation with a higher concentration of substrates (approximately 4-fold Km values) was performed in the presence of 0–50 μM anemarsaponin BII for 0, 5, 10, 15 and 30 min.

[4] = rat, in vivo, 171.61 mg/kg; cited from earlier work
[5] = biological target: T3, CYP2D6 (Homo sapiens, UniProt P10635); assay: Time-dependent inhibition of CYP2D6 in HLMs; type: in vitro ADME; details: 20 μM anemarsaponin BII, data not shown
T3 construct: marker reactions with specific substrates in human liver microsomes (HLMs); from tissue; host or cells: pooled human liver microsomes
Method: as §3

[6] = biological target: T1, CYP2E1; assay: Time-dependent inhibition of CYP2E1 in HLMs; type: in vitro ADME; details: 20 μM anemarsaponin BII, data not shown
Method: as §3

[7] = biological target: T3, CYP2D6; assay: CYP2D6 inhibition in pooled human liver microsomes (dextromethorphan O-demethylation); type: in vitro ADME
Method: as §1
(§4) Incubations were performed in triplicate, and results were represented with the mean value. […]
(§5) The effect of anemarsaponin BII on the activity of CYPs was evaluated in pooled human liver microsomes according to previous studies (Dong et al. [2018]; Wang et al. [2019]). The residual activity of eight CYP isoforms was first detected with 100 μM anemarsaponin BII in HLMs. […]
as §2, with “reaction.” for “reaction. The mechanism of the inhibition was inspected using the Lineweaver–Burk plots and the enzyme inhibition models.”

[8] = tested on: T4, CYP2C9; type: in vitro ADME; details: human, microsomes, 100 μM, pH 7.4
T4 construct: marker reactions with specific substrates in human liver microsomes (HLMs); from tissue; host or cells: pooled human liver microsomes
Method: as §1, with “[2017]). Incubations were performed in triplicate, and results were represented with the mean value. The final microsomal protein concentration and incubation times for the different probe reactions are summarized in Table 1 based on previous studies (Lang et al. [2017]; Wang et al. [2019]). The effect of anemarsaponin BII on the activity of CYPs was evaluated in pooled human liver microsomes according to previous studies (Dong et al. [2018]; Wang et al. [2019]). The residual activity of eight CYP isoforms was first detected with 100 μM anemarsaponin BII in HLMs. Next, CYPs of which the activity was inhibited by anemarsaponin BII was incubated with 0, 2.5, 5, 10, 25, 50 and 100 μM anemarsaponin BII to explore the values of half inhibition concentration (IC50). Additionally, 0–50 μM anemarsaponin BII was incubated with various concentration of probe substrates (20–100 μM testosterone for CYP3A4, 10–50 μM dextromethorphan for CYP2D6, and 25–250 μM chlorzoxazone for CYP2E1) to obtain the values of KI.” for “[2017]).”

[9] = tested on: T5, CYP2C19; type: in vitro ADME; details: human, microsomes, 100 μM, pH 7.4
T5 construct: marker reactions with specific substrates in human liver microsomes (HLMs); from tissue; host or cells: pooled human liver microsomes
Method: as §1, with “[2017]). Incubations were performed in triplicate, and results were represented with the mean value. The final microsomal protein concentration and incubation times for the different probe reactions are summarized in Table 1 based on previous studies (Lang et al. [2017]; Wang et al. [2019]). The effect of anemarsaponin BII on the activity of CYPs was evaluated in pooled human liver microsomes according to previous studies (Dong et al. [2018]; Wang et al. [2019]). The residual activity of eight CYP isoforms was first detected with 100 μM anemarsaponin BII in HLMs. Next, CYPs of which the activity was inhibited by anemarsaponin BII was incubated with 0, 2.5, 5, 10, 25, 50 and 100 μM anemarsaponin BII to explore the values of half inhibition concentration (IC50). Additionally, 0–50 μM anemarsaponin BII was incubated with various concentration of probe substrates (20–100 μM testosterone for CYP3A4, 10–50 μM dextromethorphan for CYP2D6, and 25–250 μM chlorzoxazone for CYP2E1) to obtain the values of KI.” for “[2017]).”

[10] = tested on: T6, CYP2C8; type: in vitro ADME; details: human, microsomes, 100 μM, pH 7.4
T6 construct: marker reactions with specific substrates in human liver microsomes (HLMs); from tissue; host or cells: pooled human liver microsomes
Method: as §1, with “[2017]). Incubations were performed in triplicate, and results were represented with the mean value. The final microsomal protein concentration and incubation times for the different probe reactions are summarized in Table 1 based on previous studies (Lang et al. [2017]; Wang et al. [2019]). The effect of anemarsaponin BII on the activity of CYPs was evaluated in pooled human liver microsomes according to previous studies (Dong et al. [2018]; Wang et al. [2019]). The residual activity of eight CYP isoforms was first detected with 100 μM anemarsaponin BII in HLMs. Next, CYPs of which the activity was inhibited by anemarsaponin BII was incubated with 0, 2.5, 5, 10, 25, 50 and 100 μM anemarsaponin BII to explore the values of half inhibition concentration (IC50). Additionally, 0–50 μM anemarsaponin BII was incubated with various concentration of probe substrates (20–100 μM testosterone for CYP3A4, 10–50 μM dextromethorphan for CYP2D6, and 25–250 μM chlorzoxazone for CYP2E1) to obtain the values of KI.” for “[2017]).”

[11] = tested on: T7, CYP2A6; type: in vitro ADME; details: human, microsomes, 100 μM, pH 7.4
T7 construct: marker reactions with specific substrates in human liver microsomes (HLMs); from tissue; host or cells: pooled human liver microsomes
Method: as §1, with “[2017]). Incubations were performed in triplicate, and results were represented with the mean value. The final microsomal protein concentration and incubation times for the different probe reactions are summarized in Table 1 based on previous studies (Lang et al. [2017]; Wang et al. [2019]). The effect of anemarsaponin BII on the activity of CYPs was evaluated in pooled human liver microsomes according to previous studies (Dong et al. [2018]; Wang et al. [2019]). The residual activity of eight CYP isoforms was first detected with 100 μM anemarsaponin BII in HLMs. Next, CYPs of which the activity was inhibited by anemarsaponin BII was incubated with 0, 2.5, 5, 10, 25, 50 and 100 μM anemarsaponin BII to explore the values of half inhibition concentration (IC50). Additionally, 0–50 μM anemarsaponin BII was incubated with various concentration of probe substrates (20–100 μM testosterone for CYP3A4, 10–50 μM dextromethorphan for CYP2D6, and 25–250 μM chlorzoxazone for CYP2E1) to obtain the values of KI.” for “[2017]).”

[12] = tested on: T8, CYP1A2; type: in vitro ADME; details: human, microsomes, 100 μM, pH 7.4
T8 construct: marker reactions with specific substrates in human liver microsomes (HLMs); from tissue; host or cells: pooled human liver microsomes
Method: as §1, with “[2017]). Incubations were performed in triplicate, and results were represented with the mean value. The final microsomal protein concentration and incubation times for the different probe reactions are summarized in Table 1 based on previous studies (Lang et al. [2017]; Wang et al. [2019]). The effect of anemarsaponin BII on the activity of CYPs was evaluated in pooled human liver microsomes according to previous studies (Dong et al. [2018]; Wang et al. [2019]). The residual activity of eight CYP isoforms was first detected with 100 μM anemarsaponin BII in HLMs. Next, CYPs of which the activity was inhibited by anemarsaponin BII was incubated with 0, 2.5, 5, 10, 25, 50 and 100 μM anemarsaponin BII to explore the values of half inhibition concentration (IC50). Additionally, 0–50 μM anemarsaponin BII was incubated with various concentration of probe substrates (20–100 μM testosterone for CYP3A4, 10–50 μM dextromethorphan for CYP2D6, and 25–250 μM chlorzoxazone for CYP2E1) to obtain the values of KI.” for “[2017]).”

[13] = biological target: T2, CYP3A4; assay: CYP3A4 inhibition in pooled human liver microsomes (testosterone 6β-hydroxylation); type: in vitro ADME
Method: as §1, §4, §5
as §2, with “reaction.” for “reaction. The mechanism of the inhibition was inspected using the Lineweaver–Burk plots and the enzyme inhibition models.”

[14] = 100 μM anemarsaponin BII, residual activity
[15] = HLMs, 0-100 μM anemarsaponin BII

T2 sequence (P08684 whole entry): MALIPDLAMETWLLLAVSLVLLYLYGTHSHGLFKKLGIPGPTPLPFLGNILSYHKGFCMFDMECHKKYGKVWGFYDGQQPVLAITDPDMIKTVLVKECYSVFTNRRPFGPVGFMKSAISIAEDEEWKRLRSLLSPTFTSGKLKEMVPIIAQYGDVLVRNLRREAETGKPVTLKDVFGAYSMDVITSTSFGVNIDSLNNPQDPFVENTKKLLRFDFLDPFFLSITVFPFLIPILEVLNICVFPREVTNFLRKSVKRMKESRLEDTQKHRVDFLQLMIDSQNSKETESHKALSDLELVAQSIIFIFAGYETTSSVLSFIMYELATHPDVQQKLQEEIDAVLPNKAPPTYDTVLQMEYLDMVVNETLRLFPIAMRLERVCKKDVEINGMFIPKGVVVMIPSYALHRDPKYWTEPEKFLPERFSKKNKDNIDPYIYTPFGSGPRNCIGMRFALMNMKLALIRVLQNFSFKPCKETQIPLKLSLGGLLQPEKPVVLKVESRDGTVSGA
T1 sequence (P05181 whole entry): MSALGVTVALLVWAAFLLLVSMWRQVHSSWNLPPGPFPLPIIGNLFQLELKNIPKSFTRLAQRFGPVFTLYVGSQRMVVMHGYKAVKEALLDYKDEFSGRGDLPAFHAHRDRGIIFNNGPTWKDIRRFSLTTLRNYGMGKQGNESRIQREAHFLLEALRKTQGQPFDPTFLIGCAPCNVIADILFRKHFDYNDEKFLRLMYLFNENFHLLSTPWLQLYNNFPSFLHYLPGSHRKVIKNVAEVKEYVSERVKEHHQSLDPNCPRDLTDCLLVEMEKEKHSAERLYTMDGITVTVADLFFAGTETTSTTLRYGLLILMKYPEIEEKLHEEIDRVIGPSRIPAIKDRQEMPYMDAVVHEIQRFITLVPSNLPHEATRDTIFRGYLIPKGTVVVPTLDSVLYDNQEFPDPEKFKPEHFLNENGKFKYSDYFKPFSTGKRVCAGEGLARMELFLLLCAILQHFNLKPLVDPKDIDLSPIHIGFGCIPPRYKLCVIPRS
T3 sequence (P10635 whole entry): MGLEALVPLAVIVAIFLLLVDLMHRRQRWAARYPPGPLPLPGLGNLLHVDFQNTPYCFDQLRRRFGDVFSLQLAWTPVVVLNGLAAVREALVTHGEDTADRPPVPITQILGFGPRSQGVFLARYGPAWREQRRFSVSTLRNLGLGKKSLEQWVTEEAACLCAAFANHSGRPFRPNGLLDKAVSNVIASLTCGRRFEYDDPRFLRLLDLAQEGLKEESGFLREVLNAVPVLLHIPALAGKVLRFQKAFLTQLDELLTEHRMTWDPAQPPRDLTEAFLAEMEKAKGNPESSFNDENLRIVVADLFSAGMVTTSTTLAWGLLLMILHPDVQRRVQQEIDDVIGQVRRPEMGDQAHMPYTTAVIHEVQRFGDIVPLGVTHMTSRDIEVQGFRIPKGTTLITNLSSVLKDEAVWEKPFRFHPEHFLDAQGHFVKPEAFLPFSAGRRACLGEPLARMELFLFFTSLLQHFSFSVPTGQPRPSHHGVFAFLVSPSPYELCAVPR

## CC(CCC1(O)OC2CC3C4CCC5CC(OC6OC(CO)C(O)C(O)C6OC6OC(CO)C(O)C(O)C6O)CCC5(C)C4CCC3(C)C2C1C)COC1OC(CO)C(O)C(O)C1O (stereo not shown) [anemarsaponin BII, Anemarsaponin BII]
[1]; [14]
  activity of CYP2E1 decreased to (relative to untreated HLMs): 23.45%
[1]; HLMs
  inhibition model CYP2E1 (Lineweaver–Burk): competitive
  pIC50: 4.71
[1]; HLMs, 25–250 μM chlorzoxazone, competitive model
  pKi: 5.01
[1]; human, pooled human liver microsomes, pH 7.4, probe chlorzoxazone (6-hydroxylation), HLMs
  pIC50: 4.72
[2]
  half-life (t1/2): 2.7 h
[3]; 20 μM anemarsaponin BII
  effect of incubation time on inhibition of CYP3A4: increased with the incubation time
[3]; human, human liver microsomes, NADPH, 0–50 μM anemarsaponin BII, 0-30 min, non-linear regression
  kinact: 0.000883 s⁻¹
[4]
  Cmax: 271.22 ng/mL
  t1/2: 3.21 h
[5]
  effect of incubation time on inhibition of CYP2D6: not affected by the incubation time
[6]
  effect of incubation time on inhibition of CYP2E1: not affected by the incubation time
[7]; [14]
  activity of CYP2D6 decreased to (relative to untreated HLMs): 18.79%
[7]; HLMs
  inhibition model CYP2D6 (Lineweaver–Burk): competitive
[7]; [15]
  pIC50: 4.79
[7]; HLMs, 10–50 μM dextromethorphan, competitive model
  pKi: 5.08
[8]
  effect on activity of CYP2C9: only the activity of CYP3A4, 2D6 and 2E1 was significantly inhibited
[9]
  effect on activity of CYP2C19: only the activity of CYP3A4, 2D6 and 2E1 was significantly inhibited
[10]
  effect on activity of CYP2C8: only the activity of CYP3A4, 2D6 and 2E1 was significantly inhibited
[11]
  effect on activity of CYP2A6: only the activity of CYP3A4, 2D6 and 2E1 was significantly inhibited
[12]
  effect on activity of CYP1A2: only the activity of CYP3A4, 2D6 and 2E1 was significantly inhibited
[13]; [14]
  activity of CYP3A4 decreased to (relative to untreated HLMs): 15.65%
[13]; HLMs
  inhibition model CYP3A4 (Lineweaver–Burk): non-competitive
[13]; [15]
  pIC50: 4.86
[13]; HLMs, 20–100 μM testosterone, non-competitive model
  pKi: 5.17
